# From patent US7258981B2, “Sensitive proteasome sensor constructs and methods for their design and use” (Clontech Laboratories, Inc., priority 2003, dated 2007)
# Like-named read-outs stand apart in the source and are kept apart here. Square brackets hold non-standard residues; d marks the D form. Peptide text beside a SMILES is read from it. * marks the point of attachment. Nle = CCCC[C@H](N)C(=O)O; Cbz = O=C(OCc1ccccc1)*
# Tests used:
# [1] = test system: proteasome; assay: Stable HEK 293 clone expressing ZsGreend410, fluorescence with or without ALLN; format: cell-based
# [2] = test system: proteasome; assay: Inventive proteasome sensor sensitivity (detection of proteasome inhibitors); format: cell-based; details: six hour after treatment as benchmark; broadest stated range
# Description: In determining sensitivity of his system, in the present application six hour after treating a cell with a proteasome modifying treatment is employed as a benchmark for sensitivity.
# [3] = test system: proteasome; assay: HEK 293 cells transiently transfected with ZsGreen constructs, MFI by flow cytometry; format: cell-based; details: HEK 293, transient transfection
# Experimental: (FIGS. 2A&B) To establish if the above proteins are substrate for degradation by the proteasome, HEK 293 cells were transiently transfected with the plasmids and the mean fluorescence intensity (MFI) of the cells was measured by flow cytometry 16 hours after transfection. […] To distinguish between these two possibilities, the transiently transfected cells were treated with ALLN, a well-characterized reversible inhibitor of proteasomal degradation.
# [4] = test system: proteasome; details: GFP-MODC fragment fusion; at 20 hours; flow cytometry; cited from earlier work
# [5] = test system: proteasome; details: GFP-Ubiquitin fusion; at 15 hours; flow cytometry (FACS); cited from earlier work
# [6] = test system: proteasome; details: GFP-CL1 fusion; flow cytometry; cited from earlier work
structure (smiles),measurement,setting,value
CCCC[C@@H](C=O)NC(=O)[C@H](CC(C)C)NC(=O)[C@H](CC(C)C)NC(C)=O [ALLN] (Ac-Leu-Leu-[Nle]-aldehyde),delay before the appearance of fluorescence,"[1]; ZsGreend410-expressing clone, stable transfection",3 h
same,effect of treatment on fluorescence of cells stably expressing ZsGreend410,[1]; stable HEK 293 clone,sharply increases
same,detection level of inhibitor by the inventive sensor,[2],50 to 2500 nM
same,effect of treatment on fluorescence of ZsGreen expressing cells,[3],only marginally increases
same,effect of treatment on fluorescence of pZsGreendl and pZsGreend410-transfected cells,[3],increased in a time-dependent fashion
CC[C@H](C)[C@H](NC(=O)[C@H]([C@@H](C)CC)N(C)C(C)=O)C(=O)N[C@H](C(=O)N[C@@H](CC(C)C)C(=O)[C@@]1(C)CO1)[C@@H](C)O [Epoxomycin],detection level of inhibitor by the inventive sensor,[2],1 to 30 nM
CC(C)C[C@@H](C=O)NC(=O)[C@H](CC(C)C)NC(=O)[C@H](CC(C)C)NC(=O)OCc1ccccc1 [MG132] (Cbz-Leu-Leu-Leu-aldehyde),sensitivity achieved (inhibitor concentration),[4],2.5 µM
CC(C)C[C@@H](/C=C/S(C)(=O)=O)NC(=O)[C@H](CC(C)C)NC(=O)[C@H](CC(C)C)NC(=O)OCc1ccccc1 [Z-L3-VS],sensitivity achieved (inhibitor concentration),[5],4 µM
CC(=O)N[C@@H](CSC(=O)[C@]1([C@@H](O)C(C)C)NC(=O)[C@H](C)[C@@H]1O)C(=O)O [Lactacystin],detection level of inhibitor by the inventive sensor,[2],10 to 500 nM
same,sensitivity achieved (inhibitor concentration),[6],845 nM
same,sensitivity achieved (inhibitor concentration),[4],2.5 µM
